# In US20200383985A1, “Inhibitors of Protease Activated Receptor-2” (Endosome Therapeutics, Inc., priority 2017, published 2020):
# pIC50: −log10 of the molar value. Like-named read-outs stand apart in the source and are kept apart here.
# Target: T1, human (h) PAR2 (Homo sapiens, UniProt P55085)
# T1 construct: expressed in transfected cells; host or cells: KNRK cells (KNRK-hPAR2)
# T1 sequence (P55085 26-397): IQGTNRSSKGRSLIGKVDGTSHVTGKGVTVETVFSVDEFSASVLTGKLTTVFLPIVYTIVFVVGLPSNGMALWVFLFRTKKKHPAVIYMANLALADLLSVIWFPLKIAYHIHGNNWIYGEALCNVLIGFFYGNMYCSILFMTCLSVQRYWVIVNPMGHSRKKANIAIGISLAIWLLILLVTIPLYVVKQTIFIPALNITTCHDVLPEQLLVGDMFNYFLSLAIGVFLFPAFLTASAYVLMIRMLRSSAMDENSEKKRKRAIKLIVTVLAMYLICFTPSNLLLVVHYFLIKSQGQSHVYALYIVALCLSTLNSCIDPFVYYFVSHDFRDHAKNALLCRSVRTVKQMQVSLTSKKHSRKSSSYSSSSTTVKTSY
# Test: IP1 accumulation assay in KNRK-hPAR2 cells
# Assay type: cell-based
smiles,measurement,setting,value
"Cc1nc(C(=O)N2CCN(C(=O)c3cn4nc(-c5ccc(F)cc5)cc(C(C)(C)C)c4n3)C(C)(C)C2)n[nH]1 [Compound I-343, (8-(tert-butyl)-6-(4-fluorophenyl)imidazo[1,2-b]pyridazin-2-yl)(2,2-dimethyl-4-(5-methyl-1H-1,2,4-triazole-3-carbonyl)piperazin-1-yl)methanone]",pIC50,"2F (100 nM)-induced IP1, KNRK-hPAR2 cells, read-out: KNRK-PAR2 100 nM 2F (IC50)",6.18
same,pIC50,"trypsin (30 nM), read-out: IC50, trypsin-induced IP1 in KNRK-hPAR2 cells",5.12
same,IC50,"trypsin (30 nM), read-out: pIC50, trypsin-induced IP1 in KNRK-hPAR2 cells (converted)",7.41 µM
